Laboratory results from PMC6273932, “Xanthium strumarium as an Inhibitor of α-Glucosidase, Protein Tyrosine Phosphatase 1β, Protein Glycation and ABTS^+ for Diabetic and Its Complication” (Molecules, 2016).
Converted amounts (≈) assume the structure as drawn.

Assays:
[1] = system: recombinant aldose reductase; details: compounds from X. strumarium; cited from earlier work
[2] = system: AGEs; design: method as in PMID 20118563; details: isolated from the extracts of Erigeron annuus; cited from earlier work
[3] = system: advanced glycation end products (AGEs); experiment: AGEs inhibitory activity, bovine serum albumin-methylglyoxal assay (fluorescence); assay type: biochemical
Experimental: The modified procedure of Lee et al. was followed. Bovine serum albumin (10 mg/mL) was incubated with 5 mM methylglyoxal in sodium phosphate buffer (100 mM; pH 7.4). […] All of the reagents and samples were […] by filtration through 0.2 μm membrane filters and the mixture was incubated at 37 °C for 7 days. The fluorescence intensity was measured at an excitation wavelength of 330 nm and an emission wavelength of 410 nm with a LS50B fluorescence spectrometer Perkin-Elmer Ltd., (Buckinghamshire, FLS, UK). Aminoguanidine was also tested as a known inhibitor.

[4] = system: rat lens aldose reductase; details: compounds from X. strumarium; cited from earlier work
[5] = ABTS^+ radical scavenging activity assay
Experimental: The method described by Li et al. was used with slight modifications. ABTS^+ diammonium salt (2 mM) and potassium persulfate (3.5 mM) were mixed, diluted in distilled water and kept in the dark at room temperature for 24 h before use. After addition of ABTS^+ solution to 10 µL of antioxidant, measurements were recorded at 10 min post reaction. The percentage inhibition of absorbance at 750 nm was calculated and plotted as a function of concentration of antioxidants. Trolox was used as positive control.

[6] = system: α-glucosidase from Saccharomyces sp.; experiment: α-glucosidase inhibitory activity assay (pNPG substrate, absorbance 405 nm); assay type: biochemical
Text: ^1H- and ^13C-NMR spectra and correlation NMR spectra such as COSY, HMBC, HMQC, and DEPT were obtained from a Bruker Avance DPX 400 (or 600) spectrometer (Berlin, Germany). These were obtained at operating frequencies of 400 MHz (^1H) and 100 (or 150) MHz (^13C) with CD3OD, (CD3)2SO, (CD3)2CO, or D2O and TMS was used as an internal standard; chemical shifts were reported in δ values. The α-glucosidase from Saccharomyces sp. (SSG) was purchased from Wako Pure Chemical Industries Ltd (Tokyo, Japan). […] All other chemicals and reagents used were of analytical grade.
The α-glucosidase inhibitory activity of the extracts and fractions was determined using a modified procedure reported method with a slight modification. The α-glucosidase activity was measured using the substrate p-nitrophenyl-α-D-glucopyranoside (pNPG), which is hydrolyzed by α-glucosidase to release the product p-nitrophenol, a colorant that can be monitored at 405 nm. The initial concentration of the enzyme solution was 0.62 unit/mL in 0.1 M phosphate buffer (pH 6.9) and the initial concentration of the substrate solution was 2 mM in the same phosphate buffer. The enzyme solution was mixed with water and the samples or controls in a clear 96-well microplate (flat bottom) and the reaction was initiated by addition of the substrate to the solution. The plates were incubated at 37 °C for 5 min and the reaction was terminated by the addition of 0.1 M Na2CO3. […] Background absorbance was determined using a non-enzyme control microplate containing the buffer and was subtracted from the absorbance of the samples and controls.

[7] = biological target: T1, protein tyrosine phosphatase 1β (PTP1β) (Homo sapiens, UniProt P18031); experiment: PTP1β inhibitory activity assay (colorimetric kit, IR5 phosphopeptide substrate); assay type: biochemical
T1 sequence (P18031 1-322 limits assumed): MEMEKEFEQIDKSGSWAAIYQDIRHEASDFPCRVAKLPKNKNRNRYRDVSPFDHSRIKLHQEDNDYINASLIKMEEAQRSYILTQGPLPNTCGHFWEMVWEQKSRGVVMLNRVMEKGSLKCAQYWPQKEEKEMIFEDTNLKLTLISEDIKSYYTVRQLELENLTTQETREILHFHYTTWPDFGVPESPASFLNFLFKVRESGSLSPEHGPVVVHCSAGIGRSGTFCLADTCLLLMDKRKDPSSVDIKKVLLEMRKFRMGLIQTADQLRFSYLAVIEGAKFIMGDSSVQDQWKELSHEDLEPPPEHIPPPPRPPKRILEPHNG
Experimental: PTP1β tyrosine phosphatase drug discovery kit is a colorimetric, non-radioactive assay designed to measure the phosphatase activity of purified PTP1β. […] Following incubation at 37 °C for 30 min, the reaction was terminated with the BIOMOL RED^TM reagent. The amount of […] produced was estimated by measuring the absorbance at 620 nm. The non-enzymatic hydrolysis of the IR5 substrate was corrected by measuring the increase in absorbance at 620 nm obtained in the absence of PTP1β enzyme.

[8] = isolated compounds, - is no activity

IC50 ([3]; isolated compounds): 82.8 µM
IC50 AGEs [3, 8]: 43.96 ± 3.89 µg/mL (≈ 82.9 µM)
IC50 ([5]; isolated compounds): 6.03 µM
IC50 ABTS^+ radical scavenging [5, 8]: 3.20 ± 0.28 µg/mL (≈ 6.03 µM)
Inhibition (%) α-glucosidase ([6]; 2.5 μg/mL): 22.63%
Inhibition (%) α-glucosidase ([6]; 5 μg/mL): 40.00%
Inhibition (%) α-glucosidase ([6]; 12.5 μg/mL): 59.11%
Inhibition (%) α-glucosidase ([6]; 25 μg/mL): 96.50%
IC50 ([6]; isolated compounds): 18.4 µM
IC50 α-glucosidase [6, 8]: 9.78 ± 0.79 µg/mL (≈ 18.4 µM)
fold higher inhibition than positive control acarbose (α-glucosidase) ([6]; ratio of IC50 (μM) values): 31.74 fold
inhibition at 1 µg/mL ([7]; 1 μg/mL): 24%
inhibition at 2.5 µg/mL ([7]; 2.5 μg/mL): 30.7%
inhibition at 5 µg/mL ([7]; 5 μg/mL): 50%
inhibition at 10 µg/mL ([7]; 10 μg/mL, - is no activity): 82.5%
fold higher inhibition than positive control sumarin (PTP1β) ([7]; ratio of IC50 (μM) values): 2.93 fold
Structure (SMILES): COC(=O)[C@]1(O)C[C@@H](OC(=O)/C=C/c2ccc(O)c(O)c2)[C@@H](O)[C@H](OC(=O)/C=C/c2ccc(O)c(O)c2)C1 [compound 6, methyl-3,5-di-O-caffeoylquinic acid]
recombinant aldose reductase inhibitory activity [1]: strong
inhibitory activity on AGEs [2]: strong inhibitory activity
Inhibition (%) AGEs ([3]; 10 μg/mL): 24.24%
Inhibition (%) AGEs ([3]; 20 μg/mL): 34.59%
Inhibition (%) AGEs ([3]; 50 μg/mL): 54.77%
Inhibition (%) AGEs ([3]; 100 μg/mL): 89.47%
fold higher inhibition than positive control aminoguanidine (AGEs) ([3]; ratio of IC50 (μM) values): 17.03 fold
rat lens aldose reductase inhibitory activity [4]: strong
Inhibition (%) ABTS^+ ([5]; 0.33 μg/mL): 7.49%
Inhibition (%) ABTS^+ ([5]; 1.66 μg/mL): 33.69%
Inhibition (%) ABTS^+ ([5]; 8.33 μg/mL): 98.31%
fold higher inhibition than positive control trolox (ABTS^+) ([5]; ratio of IC50 (μM) values): 4.93 fold
